Values quoted from earlier work as cited in patent publication US20020016372A1, “Method for preventing and treating alzheimer's disease and brain damage associated with cardiov ascular disease and head injury” (priority 2000, published 2002).
Entries after “also recorded” stand apart in the source; their conditions may differ. Read-outs that look alike come from different tables or passages of the source.

Legend:
brain sulfotransferase = details: mice; for brain sulfotransferase activity: in vivo
[1] = test system: protein tyrosine phosphorylation in the brain; details: chick embryo
[2] = test system: Caco-2 Colon Carcinoma Cells; details: oxidant effect
Human Lymphocytes = details: comet assay
NGF = details: aged rodents
[3] = rat, dietary supplementation

CC(=O)CC(c1ccccc1)c1c(O)c2ccccc2oc1=O (stereo not drawn) [warfarin]
incorporation of labeled sulfate into brain sulfatides (brain sulfotransferase): decrease
brain sulfotransferase activity (brain sulfotransferase): decrease
protein tyrosine phosphorylation in the brain [1]: decreases

CC1=CC(=O)c2ccccc2C1=O [menadione, 2-methylnaphthoquinone]
calcium-mediated signaling [2]: perturb
thiol-containing compounds in cells [2]: can deplete
DNA damage (Human Lymphocytes): can induce DNA damage

vitamin K
protein tyrosine phosphorylation in the brain [1]: increases

COC1=C(OC)C(=O)C(CCCCCCCCCCO)=C(C)C1=O [Idebenone]
NGF levels in the brains (NGF): increases
activity in AD patients (European trials): appeared to have some activity
activity in AD patients (U.S. trial (abandoned)): no activity was found

CC1=C(C/C=C(\C)CCC[C@H](C)CCC[C@H](C)CCCC(C)C)C(=O)c2ccccc2C1=O [phylloquinone, Phylloquinone]
concentration of menaquinone-4 in the brain [3]: increased; also recorded: augments
brain sulfotransferase activity (brain sulfotransferase): increased
